Biological target: T1, CDK2/Cyclin E complex (Homo sapiens, UniProt P24941)
T1 construct: purchased Eurofins 14-475
Test: CDK2/Cyclin E fluorescence-based microfluidic mobility shift assay (CDK2 Biochemical Caliper Assay)
Settings: read-out: Biochemical CDK2/CyclinE Caliper IC50
How it was run: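 Microfluidic mobility-shift readout after EDTA termination measured phosphorylation of fluorescent FL Peptide 18 (1.5 uM final) in a 20 hr room-temperature reaction. Compounds were tested at 11 concentrations (3-fold).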

`Cc1cc(Nc2cc(C3CCCC3)[nH]n2)c2c(F)cccc2n1` [Example 812] and `Cc1c(F)c(Nc2cc(C3CCCC3)[nH]n2)nc2ccccc12` [Example 863] fall in the same range of IC50: 1000 to 100000 nM for the first, 1000 to 100000 nM for the second.

`Oc1ccc2ccnc(Nc3cc(C4CCCC4)[nH]n3)c2c1` [Example 813] and `Cc1cc2ccccc2c(Nc2cc(C3CCCC3)[nH]n2)n1` [Example 858] fall in the same range of IC50: 1000 to 100000 nM for the first, 1000 to 100000 nM for the second.

`CC(C)c1cc(Nc2cc(C3CCCC3)[nH]n2)n2ncnc2n1` [Example 817] and `CCc1c(C)nc2ncnn2c1Nc1cc(C2CCCC2)[nH]n1` [Example 875] fall in the same range of IC50: 1000 to 100000 nM for the first, 1000 to 100000 nM for the second.

First: Cc1cn2nccc2c(Nc2cc(C3CCCC3)[nH]n2)n1 [Example 822]
Second: c1cc2c(Nc3cc(C4CCCC4)[nH]n3)ncnn2c1 [Example 861]
The IC50 of the first is lower: 250 to 1000 nM for the first, 1000 to 100000 nM for the second.

`Cc1[nH]nc2nccc(Nc3cc(C4CCCC4)[nH]n3)c12` [Example 827] and `O=c1cc(Nc2cc(C3CCCC3)[nH]n2)c2ncccc2[nH]1` [Example 873] fall in the same range of IC50: 1000 to 100000 nM for the first, 1000 to 100000 nM for the second.

`O=C1COc2ncnc(Nc3cc(C4CCCC4)[nH]n3)c2N1` [Example 831] and `Cc1cc2ncnc(Nc3cc(C4CCCC4)[nH]n3)c2[nH]1` [Example 859] fall in the same range of IC50: 1000 to 100000 nM for the first, 1000 to 100000 nM for the second.

`Cc1cn2nc(Nc3cc(C4CCCC4)[nH]n3)cc(C)c2n1` [Example 832] and `Cc1c(Nc2cc(C3CCCC3)[nH]n2)nn2cnnc2c1C` [Example 866] fall in the same range of IC50: 1000 to 100000 nM for the first, 1000 to 100000 nM for the second.

First: c1cc(Nc2cc(C3CCCC3)[nH]n2)n2ccnc2n1 [Example 837]
Second: c1cc2nc(Nc3cc(C4CCCC4)[nH]n3)ccn2n1 [Example 877]
The IC50 of the first is higher: 1000 to 100000 nM for the first, 250 to 1000 nM for the second.

`Cc1nc(Nc2cc(C3CCCC3)[nH]n2)c2sccc2n1` [Example 839] and `Cc1cnc(Nc2cc(C3CCCC3)[nH]n2)c(C)n1` [Example 862] fall in the same range of IC50: 1000 to 100000 nM for the first, 1000 to 100000 nM for the second.

First: OCCOc1cncc(Nc2cc(C3CCCC3)[nH]n2)n1 [Example 842]
Second: Oc1cc(Nc2cc(C3CCCC3)[nH]n2)ncn1 [Example 876]
The IC50 of the first is lower: 100 to 250 nM for the first, 1000 to 100000 nM for the second.

`O=c1ccc2nc(Nc3cc(C4CCCC4)[nH]n3)ccc2[nH]1` [Example 849] and `COc1cccc2ccc(Nc3cc(C4CCCC4)[nH]n3)nc12` [Example 868] fall in the same range of IC50: 1000 to 100000 nM for the first, 1000 to 100000 nM for the second.

`Clc1ccn2c(Nc3cc(C4CCCC4)[nH]n3)nnc2c1` [Example 850] and `c1cn2nc(C3CC3)cc2c(Nc2cc(C3CCCC3)[nH]n2)n1` [Example 870] fall in the same range of IC50: 1000 to 100000 nM for the first, 1000 to 100000 nM for the second.

`Cc1nc(Nc2cc(C3CCCC3)[nH]n2)cc(-c2ccco2)n1` [Example 853] and `COc1ccc2cnnc(Nc3cc(C4CCCC4)[nH]n3)c2c1` [Example 878] fall in the same range of IC50: 1000 to 100000 nM for the first, 1000 to 100000 nM for the second.

`Cc1cc(C(F)(F)F)c(Nc2cc(C3CCCC3)[nH]n2)nn1` [Example 855] and `Cc1cnnc(Nc2cc(C3CCCC3)[nH]n2)c1C(=O)O` [Example 856] fall in the same range of IC50: 1000 to 100000 nM for the first, 1000 to 100000 nM for the second.

`CS(=O)(=O)N1CCC(Nc2cc(C3CCCC3)[nH]n2)CC1` [Example 857] and `Cc1cc(C(=O)O)c(Nc2cc(C3CCCC3)[nH]n2)nc1C` [Example 874] fall in the same range of IC50: 1000 to 100000 nM for the first, 1000 to 100000 nM for the second.

`Fc1cnc(Nc2cc(C3CCCC3)[nH]n2)c2ccccc12` [Example 860] and `c1ccc(-c2ncnc(Nc3cc(C4CCCC4)[nH]n3)n2)cc1` [Example 871] fall in the same range of IC50: 1000 to 100000 nM for the first, 1000 to 100000 nM for the second.

First: CC(C)c1nc(Nc2cc(C3CCCC3)[nH]n2)c2cc[nH]c2n1 [Example 864]
Second: COc1cnc2ncnc(Nc3cc(C4CCCC4)[nH]n3)c2c1 [Example 865]
The IC50 of the first is lower: 250 to 1000 nM for the first, 1000 to 100000 nM for the second. The first is the more potent here.

`c1cc2c(nc1Nc1cc(C3CCCC3)[nH]n1)CCOC2` [Example 867] and `c1cn2nc3c(c2c(Nc2cc(C4CCCC4)[nH]n2)n1)CCC3` [Example 869] fall in the same range of IC50: 1000 to 100000 nM for the first, 1000 to 100000 nM for the second.

First: Cc1nc(Nc2cc(C3CCCC3)[nH]n2)c(C#N)c2c1CCC2 [Example 872]
Second: CC1(NC(=O)O[C@H]2CO[C@H](c3cc(Nc4nccc5nc(C(F)(F)F)cn45)n[nH]3)C2)CC1 [Example 898]
The IC50 of the first is higher: 1000 to 100000 nM for the first, 250 to 1000 nM for the second. The second is the more potent here.

`Cn1nc(COC(F)(F)F)cc1C(=O)Nc1cc([C@H]2C[C@@H](OC(=O)NC(C)(C)C#N)CO2)[nH]n1` [Example 879] and `Cn1nc(COC(F)(F)F)cc1C(=O)Nc1cc([C@H]2C[C@@H](OC(=O)NC3(C)COC3)CO2)[nH]n1` [Example 888] cannot be ordered by IC50: no more than 100 nM for the first, no more than 100 nM for the second.

First: COCc1cc(C(=O)Nc2cc([C@H]3C[C@@H](OC(=O)NC4(C)CC4)CO3)[nH]n2)n(C)n1 [Example 880]
Second: Cn1nc(CO)cc1C(=O)Nc1cc([C@H]2C[C@@H](OC(=O)NC3(C)CC3)CO2)[nH]n1 [Example 902]
The IC50 of the first is lower: no more than 100 nM for the first, 250 to 1000 nM for the second. The first is the more potent here.

`Cn1nc(OCC(F)(F)F)cc1C(=O)Nc1cc([C@H]2C[C@@H](OC(=O)NC34CC(C3)C4)CO2)[nH]n1` [Example 881] and `Cn1nc(OCC(F)(F)F)cc1C(=O)Nc1cc([C@@H]2C[C@H](OC(=O)NC34CC(C3)C4)CO2)[nH]n1` [Example 908] cannot be ordered by IC50: no more than 100 nM for the first, no more than 100 nM for the second.

`Cn1nc(OC(F)(F)Cl)cc1C(=O)Nc1cc([C@H]2C[C@@H](OC(=O)NC3(C)CC3)CO2)[nH]n1` [Example 882] and `Cn1nc(C=O)cc1C(=O)Nc1cc([C@H]2C[C@@H](OC(=O)NC3(C)CC3)CO2)[nH]n1` [Example 883] cannot be ordered by IC50: no more than 100 nM for the first, no more than 100 nM for the second.

`Cn1nc(COC(F)(F)F)cc1C(=O)Nc1cc([C@H]2C[C@@H](OC(=O)NC34C5C6C7C5C3C7C64)CO2)[nH]n1` (stereo partly shown) [Example 884] and `Cn1nc(COC(F)(F)F)cc1C(=O)Nc1cc([C@@H]2C[C@H](OC(=O)NC3(C)COC3)CO2)[nH]n1` [Example 893] cannot be ordered by IC50: no more than 100 nM for the first, no more than 100 nM for the second.

`COCC1(NC(=O)O[C@H]2CO[C@@H](c3cc(NC(=O)c4cc(COC(F)(F)F)nn4C)n[nH]3)C2)CC1` [Example 885] and `COCC1(NC(=O)O[C@@H]2CO[C@H](c3cc(NC(=O)c4cc(COC(F)(F)F)nn4C)n[nH]3)C2)CC1` [Example 894] cannot be ordered by IC50: no more than 100 nM for the first, no more than 100 nM for the second.

`CC1(NC(=O)O[C@H]2CO[C@@H](c3cc(NC(=O)c4cnn(CCOC(F)(F)F)c4)n[nH]3)C2)CC1` [Example 886] and `COCc1cc(C(=O)Nc2cc([C@H]3C[C@@H](OC(=O)NC4(C)CC4)CO3)[nH]n2)n(C(F)(F)F)n1` [Example 895] cannot be ordered by IC50: no more than 100 nM for the first, no more than 100 nM for the second.

`Cn1nc(OCC(F)F)cc1C(=O)Nc1cc([C@H]2C[C@@H](OC(=O)NC34CC(C3)C4)CO2)n[nH]1` [Example 887] and `Cn1nc(OCC(F)F)cc1C(=O)Nc1cc([C@@H]2C[C@H](OC(=O)NC34CC(C3)C4)CO2)[nH]n1` [Example 907] cannot be ordered by IC50: no more than 100 nM for the first, no more than 100 nM for the second.

`COCc1cc(C(=O)Nc2cc([C@H]3C[C@@H](Oc4[nH]ncc4C(C)C)CO3)[nH]n2)n(C)n1` [Example 896] and `COC12CC(NC(=O)O[C@@H]3CO[C@H](c4cc(NC(=O)c5cc(COC(F)(F)F)nn5C)n[nH]4)C3)(C1)C2` [Example 911] cannot be ordered by IC50: no more than 100 nM for the first, no more than 100 nM for the second.

`CC1(NC(=O)O[C@H]2CO[C@@H](c3cc(Nc4nccn5nc(COC(F)(F)F)cc45)n[nH]3)C2)CC1` [Example 897] and `CC1(NC(=O)O[C@@H]2CO[C@H](c3cc(Nc4nccn5nc(COC(F)(F)F)cc45)n[nH]3)C2)CC1` [Example 922] cannot be ordered by IC50: no more than 100 nM for the first, no more than 100 nM for the second.

Compared with `CC1(NC(=O)O[C@H]2CO[C@@H](c3cc(Nc4nccc5nc(C(F)(F)F)cn45)n[nH]3)C2)CC1` [Example 901], `COCc1cn2c(Nc3cc([C@@H]4C[C@@H](OC(=O)NC5(C)CC5)CO4)[nH]n3)nccc2n1` [Example 904] is higher in IC50: no more than 100 nM for the first, 1000 to 100000 nM for the second. The first is the more potent here.

`COCc1cn2c(Nc3cc([C@H]4C[C@@H](OC(=O)NC5(C)CC5)CO4)[nH]n3)nccc2n1` [Example 906] and `COCc1cn2c(Nc3cc([C@@H]4C[C@H](OC(=O)NC5(C)CC5)CO4)[nH]n3)nccc2n1` [Example 921] cannot be ordered by IC50: no more than 100 nM for the first, no more than 100 nM for the second.

`C[C@@H](NC(=O)O[C@@H]1CO[C@H](c2cc(NC(=O)c3cc(OCC(F)F)nn3C)n[nH]2)C1)C1CC1` [Example 909] and `C[C@@H](NC(=O)O[C@H]1CO[C@@H](c2cc(NC(=O)c3cc(OCC(F)F)nn3C)n[nH]2)C1)C1CC1` [Example 915] cannot be ordered by IC50: no more than 100 nM for the first, no more than 100 nM for the second.

`C[C@@H](NC(=O)O[C@@H]1CO[C@H](c2cc(NC(=O)c3cc(OCC(F)(F)F)nn3C)n[nH]2)C1)C1CC1` [Example 910] and `C[C@@H](NC(=O)O[C@H]1CO[C@@H](c2cc(NC(=O)c3cc(OCC(F)(F)F)nn3C)n[nH]2)C1)C1CC1` [Example 917] cannot be ordered by IC50: no more than 100 nM for the first, no more than 100 nM for the second.

`Cn1nc(COC(F)(F)F)cc1C(=O)Nc1cc([C@@H]2C[C@H](OC(=O)NC34CC(C#N)(C3)C4)CO2)[nH]n1` [Example 912] and `Cn1nc(COC(F)(F)F)cc1C(=O)Nc1cc([C@H]2C[C@@H](OC(=O)NC34CC(C#N)(C3)C4)CO2)[nH]n1` [Example 914] cannot be ordered by IC50: no more than 100 nM for the first, no more than 100 nM for the second.

`COC12CC(NC(=O)O[C@H]3CO[C@@H](c4cc(NC(=O)c5cc(COC(F)(F)F)nn5C)n[nH]4)C3)(C1)C2` [Example 913] and `C[C@H](NC(=O)O[C@H]1CO[C@@H](c2cc(NC(=O)c3cc(OCC(F)(F)F)nn3C)n[nH]2)C1)C1CC1` [Example 918] cannot be ordered by IC50: no more than 100 nM for the first, no more than 100 nM for the second.

`C[C@H](NC(=O)O[C@H]1CO[C@@H](c2cc(NC(=O)c3cc(OCC(F)F)nn3C)n[nH]2)C1)C1CC1` [Example 916] and `C[C@H](NC(=O)O[C@@H]1CO[C@H](c2cc(NC(=O)c3cc(OCC(F)F)nn3C)n[nH]2)C1)C1CC1` [Example 919] cannot be ordered by IC50: no more than 100 nM for the first, no more than 100 nM for the second.

For `C[C@H](NC(=O)O[C@@H]1CO[C@H](c2cc(NC(=O)c3cc(OCC(F)(F)F)nn3C)n[nH]2)C1)C1CC1` [Example 920], the IC50 was no more than 100 nM.

Reference: US20240190855A1 (Relay Therapeutics, Inc., priority 2021, published 2024)
